Reference: patent publication US20250051375A1, “ANTI-HIV COMPOUNDS” (Gilead Sciences, Inc., priority 2023, published 2025)
Values after ≈ are worked out from the molar mass of the structure shown. Where two headings read alike, the source gives them in different places.

Assays:
HIV-1 IIIB strain = assay: MT-4 HIV Wild Type Virus Infection Assay (IIIB Virus); assay type: cell-based; conditions: Human immunodeficiency virus 1, IIIB, MT4, 120 h, MT-4 cells acutely infected with HIV-1 IIIB, 5 day incubation, Cell-titer glo
Procedure, shortened: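 MT-4 cells at 2×10^6 cells/ml in RPMI/10% FBS were acutely infected with HIV-1 IIIB for 1 h at 37° C, diluted 25× and added to serially diluted compounds. After 5 days at 37° C, viability read by CellTiter-Glo luminescence; EC50 from dose-response curves.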

[1] = Intestinal S9 Assay (human GI S9); assay type: in vitro ADME; conditions: 1.0 mg/mL S9 protein; for half-life at 2 μM: human, TRIS pH 7.4, read-out: Human GI S9 T½
Procedure: (§1) Reagents. Stock solutions of test compounds in dimethyl sulfoxide (DMSO) having a final concentration of 10 mM were prepared and used in all experiments. Sekisui XenoTech (Kansas City, KS) provided pooled intestinal S9 fractions. All other chemicals were purchased from Sigma-Aldrich (St. Louis, MO) or VWR (West Chester, PA). Internal Standard/Quench (IS/Q) used to stop reactions was 100 nM labetalol in (by volume) formic acid (1%) and acetonitrile (99%).
(§2) Intestinal S9 Assay: For each test compound, an aliquot of the test compound was added to S9 stock diluted with TRIS buffer (100 mM TRIS, 1 mM ZnCl2, 1 mM MgCl2), pH 7.4, to obtain an incubation protein concentration of 1.0 mg/mL. The incubation was initiated by the addition of the substrate to the S9 reaction mixture to a final concentration of 2 μM. At 0, 10, 20, 30, 60 and 120 min, 25 μL aliquots of the reaction mixture were transferred to plates containing 225 μl of IS/Q solution. After quenching, the plates were centrifuged at 3000×g for 30 minutes. 150 μL aliquots of each supernatant were transferred to new plates and 150 μL water was added. Aliquots (10 μL) of the prepared samples were analyzed on a Thermo Q-Exactive mass spectrometer as described below.
(§3) Liquid Chromatography-Mass Spectrometry: Quantification of test compounds and control substrate was performed by analyte/internal standard peak area ratio (PAR) values measured on a Thermo Q-Exactive mass spectrometer coupled to a Dionex UltiMate 3000 HPLC with a Leap Technologies HTC PAL autosampler. The column used for analysis was a Thermo Scientific Hypersil GOLD (1.9 μm particle size, 50×2.1 mm). Mobile phase A consisted of 0.1% (v/v) formic acid in water. Mobile phase B consisted of 0.1% (v/v) formic acid in acetonitrile. Elution of analytes was achieved by a series of linear gradients varying the proportions of A and B. The mass spectrometer was calibrated on a weekly basis and mass tolerance of 5 ppm was used.
(§4) Data Analysis. Metabolic stabilities were determined by measuring the rates of disappearance of test compound and positive control substrate. Data (% of substrate remaining) were plotted on a semi-log scale and fitted using an exponential decline model:
(§5) where • Ct% of substrate remaining at time=t • C0% of substrate remaining at time=0 • t time • T½ half-life • The Half-life (T½) is determined by the following equation:
(§6) [formula] • Assuming a first-order reaction, the slope (k) is extrapolated from the aforementioned plotted data.

[2] = target: bovine intestinal alkaline phosphatase (Bos taurus (Bovine), UniProt P19111); assay: BiALP: conversion by bovine intestinal alkaline phosphatase; assay type: in vitro ADME; conditions: 2 μM substrate, 100 ng/mL iALP, Tris pH 7.8, 37° C., 60 minutes
Procedure, shortened: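 Compounds at 2 μM final were incubated 60 min at 37° C in 0.1 M Tris-HCl pH 7.8 with 1 mM MgCl2 and 1 mM ZnCl2, with or without 100 ng/mL iALP (0.01 units/mL). Samples were quenched with acetonitrile/formic acid containing labetalol. Conversion was quantified by LC-MS peak area ratios against a 2 μM product standard.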

Solubility in FaSSIF = conditions: 23 °C, pH 6.5, fassif, thermodynamic from solid
Procedure, shortened: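 Concentration measured by HPLC-UV after solid compound was dosed at 5 mg/mL into pH 6.5 fasted-state simulated intestinal fluid containing taurocholate and lecithin (4:1 molar) and vortexed.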

[3] = Intestinal S9 Assay (dog GI S9); assay type: in vitro ADME; conditions: 1.0 mg/mL S9 protein; for half-life at 2 μM: dog, TRIS pH 7.4, read-out: Dog GI S9 T½
Procedure: as §1, §2, §3, §4, §5, §6

Chain of bovine intestinal alkaline phosphatase (P19111 20-506): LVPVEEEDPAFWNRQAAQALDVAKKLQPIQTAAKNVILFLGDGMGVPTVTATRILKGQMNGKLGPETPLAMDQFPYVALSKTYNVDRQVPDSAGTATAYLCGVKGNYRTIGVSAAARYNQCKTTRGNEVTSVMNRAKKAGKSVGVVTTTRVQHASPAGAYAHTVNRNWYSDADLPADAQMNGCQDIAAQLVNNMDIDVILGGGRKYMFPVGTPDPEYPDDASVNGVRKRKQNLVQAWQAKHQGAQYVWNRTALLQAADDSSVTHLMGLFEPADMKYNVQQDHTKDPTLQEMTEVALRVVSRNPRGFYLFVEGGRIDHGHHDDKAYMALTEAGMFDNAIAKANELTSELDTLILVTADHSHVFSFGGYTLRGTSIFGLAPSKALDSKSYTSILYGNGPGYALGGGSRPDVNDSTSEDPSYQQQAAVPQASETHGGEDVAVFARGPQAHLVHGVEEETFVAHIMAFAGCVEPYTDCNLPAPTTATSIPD

SMILES	EC50 (HIV-1 IIIB strain) [nM]	Human GI S9 T½ ([1]; 2 μM, TRIS pH 7.4) [min]	[Compound] [2] [nM]	solubility at 2 h (Solubility in FaSSIF) [µg/mL]	half-life at 2 μM [3] [min]	half-life at 2 μM [1] [min]	EC50 (HIV-1 IIIB strain; read-out: EC50) [nM]	solubility (Solubility in FaSSIF; FaSSIF (pH 6.5) solubility, FaSSIF pH 6.5, dose 5 mg/mL, 2-hour incubation, ambient temperature) [µg/mL]	Human GI S9 [Intermediate A] ([1]; 2 μM, TRIS pH 7.4) [nM]	Human GI S9 [Intermediate A] % ([1]; 2 μM, TRIS pH 7.4) [%]	biALP Intermediate A or [Amprenavir] (% of total) [2]	[Intermediate A] or [Amprenavir] ([2]; parent formed) [nM]	Dog GI S9 [Intermediate A] ([3]; 2 μM, TRIS pH 7.4) [nM]	Dog GI S9 [Intermediate A] % ([3]; 2 μM, TRIS pH 7.4) [%]
COC(=O)N[C@H](C(=O)N[C@@H](Cc1ccc(C#Cc2cnc(N3CC4CCC(C3)N4C3COC3)nc2)cc1)[C@H](CN(Cc1c(F)cc(-c2ccn(C(F)F)n2)cc1F)NC(=O)[C@@H](NC(=O)OC)C(C)(C)C(F)(F)F)OC(=O)CC(C)(C)c1c(CC(=O)Nc2cc(C#N)cc(C(=O)O)c2)cc(C)cc1OP(=O)(O)O)C(C)(C)C(F)(F)F [Example 63]	244	789	1778.4	495 (≈ 304 µM)	382	–	–	–	–	–	–	–	–	–
COC(=O)N[C@H](C(=O)N[C@@H](Cc1ccc(C#Cc2cnc(N3CC4CCC(C3)N4C3COC3)nc2)cc1)[C@H](CN(Cc1c(F)cc(-c2ccn(C(F)F)n2)cc1F)NC(=O)[C@@H](NC(=O)OC)C(C)(C)C(F)(F)F)OC(=O)CC(C)(C)c1c(CC(=O)N2CCC[C@@H]2C(=O)O)cc(C)cc1OP(=O)(O)O)C(C)(C)C(F)(F)F [Example 111]	452	–	1803.5	4760 (≈ 3010 µM)	98.4	618	–	–	–	–	–	–	–	–
COC(=O)N[C@H](C(=O)N[C@@H](Cc1ccc(C#Cc2cnc(N3CC4CCC(C3)N4C3COC3)nc2)cc1)[C@H](CN(Cc1c(F)cc(-c2ccn(C(F)F)n2)cc1F)NC(=O)[C@@H](NC(=O)OC)C(C)(C)C(F)(F)F)OC(=O)CC(C)(C)c1c(CC(=O)NC2(C(=O)O)CCOCC2)cc(C)cc1OP(=O)(O)O)C(C)(C)C(F)(F)F [Example 31]	276	–	2125.6	3510 (≈ 2180 µM)	222	495	–	–	–	–	–	–	–	–
COC(=O)N[C@H](C(=O)N[C@@H](Cc1ccc(C#Cc2cnc(N3CC4CCC(C3)N4C3COC3)nc2)cc1)[C@H](CN(Cc1c(F)cc(-c2ccn(C(F)F)n2)cc1F)NC(=O)[C@@H](NC(=O)OC)C(C)(C)C(F)(F)F)OC(=O)CC(C)(C)c1c(CC(=O)N2CCC(C(=O)O)CC2C(=O)O)cc(C)cc1OP(=O)(O)O)C(C)(C)C(F)(F)F (some centres unmarked) [Example 113]	341	–	1948	4140 (≈ 2530 µM)	203	393	–	–	–	–	–	–	–	–
COC(=O)N[C@H](C(=O)N[C@@H](Cc1ccc(C#Cc2cnc(N3CC4CCC(C3)N4C3COC3)nc2)cc1)[C@H](CN(Cc1c(F)cc(-c2ccn(C(F)F)n2)cc1F)NC(=O)[C@@H](NC(=O)OC)C(C)(C)C(F)(F)F)OC(=O)CC(C)(C)c1c(CC(=O)N2CCC[C@H]2C(=O)O)cc(C)cc1OP(=O)(O)O)C(C)(C)C(F)(F)F [Example 79]	645	–	2057.5	2680 (≈ 1690 µM)	562	612	–	–	–	–	–	–	–	–
C=C1C[C@@H](C(=O)O)N(C(=O)Cc2cc(C)cc(OP(=O)(O)O)c2C(C)(C)CC(=O)O[C@@H](CN(Cc2c(F)cc(-c3ccn(C(F)F)n3)cc2F)NC(=O)[C@@H](NC(=O)OC)C(C)(C)C(F)(F)F)[C@H](Cc2ccc(C#Cc3cnc(N4CC5CCC(C4)N5C4COC4)nc3)cc2)NC(=O)[C@@H](NC(=O)OC)C(C)(C)C(F)(F)F)C1 [Example 60]	–	–	1457.7	–	348	720	218	3480 (≈ 2190 µM)	–	–	–	–	–	–
COC(=O)N[C@H](C(=O)N[C@@H](Cc1ccc(C#Cc2cnc(N3CC4CCC(C3)N4C3COC3)nc2)cc1)[C@H](CN(Cc1c(F)cc(-c2ccn(C(F)F)n2)cc1F)NC(=O)[C@@H](NC(=O)OC)C(C)(C)C(F)(F)F)OC(=O)CC(C)(C)c1c(CC(=O)N2[C@@H](C)CC[C@H]2C(=O)O)cc(C)cc1OP(=O)(O)O)C(C)(C)C(F)(F)F [Example 54]	94	–	1661.6	3080 (≈ 1930 µM)	567	773	–	–	–	–	–	–	–	–
COC(=O)N[C@H](C(=O)N[C@@H](Cc1ccc(C#Cc2cnc(N3CC4CCC(C3)N4C3COC3)nc2)cc1)[C@H](CN(Cc1c(F)cc(-c2ccn(C(F)F)n2)cc1F)NC(=O)[C@@H](NC(=O)OC)C(C)(C)C(F)(F)F)OC(=O)CC(C)(C)c1c(CC(=O)N2CCC[C@H]2C(=O)O)cccc1OP(=O)(O)O)C(C)(C)C(F)(F)F [Example 46]	190	–	1864.7	2870 (≈ 1830 µM)	305	445	–	–	–	–	–	–	–	–
COC(=O)N[C@H](C(=O)N[C@@H](Cc1ccc(C#Cc2cnc(N3CC4CCC(C3)N4C3COC3)nc2)cc1)[C@H](CN(Cc1c(F)cc(-c2ccn(C(F)F)n2)cc1F)NC(=O)[C@@H](NC(=O)OC)C(C)(C)C(F)(F)F)OC(=O)CC(C)(C)c1c(CC(=O)Nc2cc(C(=O)O)cc(C(=O)O)c2)cccc1OP(=O)(O)O)C(C)(C)C(F)(F)F [Example 19]	38.9	–	1405.7	3650 (≈ 2230 µM)	18	230	–	–	323.6	22.1	18.4 % of total	317.9	1045.1	94.7
COC(=O)N[C@H](C(=O)N[C@@H](Cc1ccc(C#Cc2cnc(N3CC4CCC(C3)N4C3COC3)nc2)cc1)[C@H](CN(Cc1c(F)cc(-c2ccn(C(F)F)n2)cc1F)NC(=O)[C@@H](NC(=O)OC)C(C)(C)C(F)(F)F)OC(=O)CC(C)(C)c1c(CC(=O)N2C[C@H](OC)C[C@H]2C(=O)O)cc(C)cc1OP(=O)(O)O)C(C)(C)C(F)(F)F [Example 59]	658	789	1520.4	3600 (≈ 2230 µM)	400	–	–	–	–	–	–	–	–	–
COC(=O)N[C@H](C(=O)N[C@@H](Cc1ccc(C#Cc2cnc(N3CC4CCC(C3)N4C3COC3)nc2)cc1)[C@H](CN(Cc1c(F)cc(-c2ccn(C(F)F)n2)cc1F)NC(=O)[C@@H](NC(=O)OC)C(C)(C)C(F)(F)F)OC(=O)CC(C)(C)c1c(CC(=O)N[C@@H](CCS(=O)(=O)O)C(=O)O)cccc1OP(=O)(O)O)C(C)(C)C(F)(F)F [Example 40]	40.5	–	1458.8	4910 (≈ 3000 µM)	32.2	286	–	–	–	–	–	–	–	–
COC(=O)N[C@H](C(=O)N[C@@H](Cc1ccc(C#Cc2cnc(N3CC4CCC(C3)N4C3COC3)nc2)cc1)[C@H](CN(Cc1c(F)cc(-c2ccn(C(F)F)n2)cc1F)NC(=O)[C@@H](NC(=O)OC)C(C)(C)C(F)(F)F)OC(=O)CC(C)(C)c1c(CC(=O)N2CC[C@@H](O)[C@H]2C(=O)O)cc(C)cc1OP(=O)(O)O)C(C)(C)C(F)(F)F [Example 57]	290	–	1612.8	4100 (≈ 2560 µM)	432	657	–	–	–	–	–	–	–	–
COC(=O)N[C@H](C(=O)N[C@@H](Cc1ccc(C#Cc2cnc(N3CC4CCC(C3)N4C3COC3)nc2)cc1)[C@H](CN(Cc1c(F)cc(-c2ccn(C(F)F)n2)cc1F)NC(=O)[C@@H](NC(=O)OC)C(C)(C)C(F)(F)F)OC(=O)CC(C)(C)c1c(CC(=O)N2CC(C(=O)O)C2)cc(C)cc1OP(=O)(O)O)C(C)(C)C(F)(F)F [Example 110]	138	–	1852.3	4420 (≈ 2820 µM)	169	511	–	–	–	–	–	–	–	–
